Target: T1, human orexin type 2 receptor (Homo sapiens, UniProt O43614)
T1 construct: expressed in transfected cells
T1 sequence (O43614 1-444): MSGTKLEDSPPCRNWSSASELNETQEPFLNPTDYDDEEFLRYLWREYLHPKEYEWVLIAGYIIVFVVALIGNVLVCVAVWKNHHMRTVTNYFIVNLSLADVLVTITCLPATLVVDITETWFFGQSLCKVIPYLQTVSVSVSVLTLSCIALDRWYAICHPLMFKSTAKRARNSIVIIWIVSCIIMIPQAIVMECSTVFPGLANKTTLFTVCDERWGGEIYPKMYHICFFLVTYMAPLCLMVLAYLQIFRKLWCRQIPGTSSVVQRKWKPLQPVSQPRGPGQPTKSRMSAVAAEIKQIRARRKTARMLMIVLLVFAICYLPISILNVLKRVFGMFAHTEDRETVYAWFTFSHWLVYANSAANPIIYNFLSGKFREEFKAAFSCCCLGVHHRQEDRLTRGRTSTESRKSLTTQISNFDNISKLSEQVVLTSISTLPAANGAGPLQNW
Assay: Measurement of orexin type 2 receptor agonist activity (calcium fluorescence, Fluo-4 AM, FDSS) in CHO cells forcibly expressing human OX2 receptor
Type: cell-based
Settings: test compound 3 μM, DMSO = 0%, orexin A (human) 10 nM = 100%
Method in brief: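 CHO-dhfr cells stably expressing human OX2 receptor, loaded with Fluo-4 AM plus probenecid for 30 min at 37 °C, then 30 min at room temperature. Calcium fluorescence read for about 2 min 40 s after compound addition. Activity (%) scaled between DMSO (0%) and 10 nM human orexin A (100%).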

CC(C)n1cnc2c(c1=O)C(Cc1cccc(-c3cccc(F)c3)c1)C(NS(C)(=O)=O)CC2 [Example 89, rel-N-[(5R,6S)-5-[(3′-fluoro[1,1′-biphenyl]-3-yl)methyl]-4-oxo-3-(propan-2-yl)-3,4,5,6,7,8-hexahydroisoquinazolin-6-yl]methanesulfonamide]
0X2R agonist activity (3 μM, %): 101%

CC(C)n1cnc2c(c1=O)[C@@H](Cc1cccc(-c3cc(F)cc(F)c3)c1)[C@@H](NS(C)(=O)=O)CC2 (racemic) [Example 67, rac-N-[(5R,6S)-5-[(3′,5′-difluoro[1,1′-biphenyl]-3-yl)methyl]-4-oxo-3-(propan-2-yl)-3,4,5,6,7,8-hexahydroquinazolin-6-yl]methanesulfonamide]
0X2R agonist activity (3 μM, %): 105%

CC(C)n1ccc2c(c1=O)[C@@H](Cc1cccc(-c3ccccc3)n1)[C@@H](NS(C)(=O)=O)CC2 (racemic) [Example 148, rac-N-[(7S,8R)-1-oxo-8-[(6-phenylpyridin-2-yl)methyl]-2-(propan-2-yl)-1,2,5,6,7,8-hexahydroisoquinolin-7-yl]methanesulfonamide]
0X2R agonist activity (3 μM, %): 104%

CCn1ccc2c(c1=O)[C@@H](Cc1cccc(-c3ccccc3)c1F)[C@@H](NS(C)(=O)=O)CC2 (racemic) [Example 87, rac-N-{(7S,8R)-2-ethyl-8-[(2-fluoro[1,1′-biphenyl]-3-yl)methyl]-1-oxo-1,2,5,6,7,8-hexahydroisoquinolin-7-yl}methanesulfonamide]
0X2R agonist activity (3 μM, %): 97%

CS(=O)(=O)N[C@H]1CCc2ccc(F)c(=O)n2[C@H]1Cc1cccc(-c2ccccc2)c1 (racemic) [Example 16, rac-N-{(3S,4S)-4-[([1,1′-biphenyl]-3-yl)methyl]-7-fluoro-6-oxo-1,3,4,6-tetrahydro-2H-quinolizin-3-yl}methanesulfonamide]
0X2R agonist activity (3 μM, %): 95%

CC(C)n1cnc2c(c1=O)[C@@H](Cc1cccc(-c3cc(F)cc(F)c3)c1F)[C@@H](NS(=O)(=O)C1(F)CC1)CC2 [Example 182, 1-fluoro-N-{(5R,6S)-4-oxo-3-(propan-2-yl)-5-[(2,3′,5′-trifluoro[1,1′-biphenyl]-3-yl)methyl]-3,4,5,6,7,8-hexahydroquinazolin-6-yl}cyclopropane-1-sulfonamide]
0X2R agonist activity (3 μM, %): 101%

CCc1ccc2n(c1=O)[C@@H](Cc1cccc(-c3cccc(F)c3)c1F)[C@@H](NC(=O)C(=O)N(C)C)CC2 (relative stereo) [Example 43, rel-N~2~-{(3S,4S)-4-[(2,3′-difluoro[1,1′-biphenyl]-3-yl)methyl]-7-ethyl-6-oxo-1,3,4,6-tetrahydro-2H-quinolizin-3-yl}-N~1~,N~1~-dimethylethanediamide]
0X2R agonist activity (3 μM, %): 90%

CC(C)n1cnc2c(c1=O)C(Cc1cccc(-c3ccccc3)c1)C(NS(=O)(=O)C1(F)CC1)CC2 (stereo not drawn) [Example 185, rel-N-{5-[([1,1′-biphenyl]-3-yl)methyl]-4-oxo-3-(propan-2-yl)-3,4,5,6,7,8-hexahydroquinazolin-6-yl}-1-fluorocyclopropane-1-sulfonamide]
0X2R agonist activity (3 μM, %): 95%

Cc1cnc2n(c1=O)[C@@H](Cc1cccc(-c3ccccc3)c1)[C@@H](NS(C)(=O)=O)CC2 (racemic) [Example 94, rac-N-{(6S,7S)-6-[([1,1′-biphenyl]-3-yl)methyl]-3-methyl-4-oxo-6,7,8,9-tetrahydro-4H-pyrido[1,2-a]pyrimidin-7-yl}methanesulfonamide]
0X2R agonist activity (3 μM, %): 89%

Cc1ccc2n(c1=O)[C@@H](Cc1cccc(-c3cccc(F)c3)n1)[C@@H](NS(C)(=O)=O)CC2 (racemic) [Example 59, rac-N-[(3S,4S)-4-{[6-(3-fluorophenyl)pyridin-2-yl]methyl}-7-methyl-6-oxo-1,3,4,6-tetrahydro-2H-quinolizin-3-yl]methanesulfonamide]
0X2R agonist activity (3 μM, %): 86%

CC(C)n1cnc2c(c1=O)[C@@H](Cc1cccc(-c3ccccc3)c1)[C@@H](NS(=O)(=O)C1(F)CC1)CC2 (racemic) [Example 146, rac-N-[(5R,6S)-5-[([1,1′-biphenyl]-3-yl)methyl]-4-oxo-3-(propan-2-yl)-3,4,5,6,7,8-hexahydroquinazolin-6-yl]-1-fluorocyclopropane-1-sulfonamide]
0X2R agonist activity (3 μM, %): 96%

Cc1ccc2n(c1=O)C(Cc1cccc(-c3cccc(F)c3)c1)C(NC(=O)[C@@H]1CCCO1)CC2 (mixture of isomers) [Example 26, (2S)-N-{(3SR,4SR)-4-[(3′-fluoro[1,1′-biphenyl]-3-yl)methyl]-7-methyl-6-oxo-1,3,4,6-tetrahydro-2H-quinolizin-3-yl}oxolane-2-carboxamide]
0X2R agonist activity (3 μM, %): 101%

CC(C)n1ccc2c(c1=O)[C@@H](Cc1cccc(-c3ccccc3)c1)[C@@H](NS(C)(=O)=O)CC2 (racemic) [Example 52, rac-N-[(7S,8R)-8-[([1,1′-biphenyl]-3-yl)methyl]-1-oxo-2-(propan-2-yl)-1,2,5,6,7,8-hexahydroisoquinolin-7-yl]methane sulfonamide]
0X2R agonist activity (3 μM, %): 90%

CC(C)=Cc1cccc(C[C@@H]2c3c(ncn(C(C)C)c3=O)CC[C@@H]2NS(=O)(=O)C2(F)CC2)c1 (racemic) [Example 197, rac-1-fluoro-N-[(5R,6S)-5-{[3-(2-methylprop-1-en-1-yl)phenyl]methyl}-4-oxo-3-(propan-2-yl)-3,4,5,6,7,8-hexahydroquinazolin-6-yl]cyclopropane-1-sulfonamide]
0X2R agonist activity (3 μM, %): 92%

Cc1ccc2n(c1=O)C(Cc1cccc(-c3cccc(F)c3)c1F)C(NC(=O)[C@@H]1CCCO1)CC2 (stereo in doubt) [Example 54, (2S)-N-{(3S*,4S*)-4-[(2,3′-difluoro[1,1′-biphenyl]-3-yl)methyl]-7-methyl-6-oxo-1,3,4,6-tetrahydro-2H-quinolizin-3-yl}oxolane-2-carboxamide]
0X2R agonist activity (3 μM, %): 97%

CN(C)c1ccc2n(c1=O)[C@@H](Cc1cccc(-c3ccccc3)c1)[C@@H](NS(C)(=O)=O)CC2 (racemic) [Example 31, rac-N-[(3S,4S)-4-[([1,1′-biphenyl]-3-yl)methyl]-7-(dimethylamino)-6-oxo-1,3,4,6-tetrahydro-2H-quinolizin-3-yl]methanesulfonamide]
0X2R agonist activity (3 μM, %): 100%

Cc1cc2n(c(=O)c1C)[C@@H](Cc1cccc(-c3ccccc3)c1)[C@@H](NS(C)(=O)=O)CC2 (racemic) [Example 19, rac-N-{(3S,4S)-4-[([1,1′-biphenyl]-3-yl)methyl]-7,8-dimethyl-6-oxo-1,3,4,6-tetrahydro-2H-quinolizin-3-yl}methanesulfonamide]
0X2R agonist activity (3 μM, %): 122%

CS(=O)(=O)NC1CCc2ccc(C(F)(F)F)c(=O)n2C1Cc1cccc(-c2ccccc2)c1 (racemic) [Example 12, rac-N-[(3S,4S)-4-[([1,1′-biphenyl]-3-yl]methyl-6-oxo-7-(trifluoromethyl)-1,3,4,6-tetrahydro-2H-quinolizin-3-yl]methanesulfonamide]
0X2R agonist activity (3 μM, %): 112%

Cn1ccc2c(c1=O)[C@@H](Cc1cccc(-c3ccccc3)c1)[C@@H](NS(C)(=O)=O)CC2 (racemic) [Example 46, rac-N-{(7S,8R)-8-[([1,1′-biphenyl]-3-yl)methyl]-2-methyl-1-oxo-1,2,5,6,7,8-hexahydroisoquinolin-7-yl}methanesulfonamide]
0X2R agonist activity (3 μM, %): 102%

Reference: patent US12071434B2, “Heterocyclic compound” (Takeda Pharmaceutical Company Limited, priority 2018, dated 2024)
